Results published in US12421489B2, “Biological control of plant pathogenic microorganisms” (priority 2016, dated 2025).

Legend:
Format in all cases: in vivo
Monilinia fructicola = test: Cherry inoculation assays 1 and 3: Monilinia fruit rot of ‘Sweet Valentine’ cherries, dip treatment; details: Assay 1, cherries, cumulative after 13 days; Nil 50%; reductions not significant
Procedure: (§1) Fruit-based screening assays were conducted in laboratories at the Plant and Food Research Ruakura Research Centre, Hamilton, New Zealand (PFR). PFR assays focused on dip treatment application of YBCA5 and fungicide controls.
(§2) Fruit for Monilinia fructicola and Botrytis spp. inoculation assays were carried out on sweet cherries (Prunus avium ‘Sweet Valentine’) that were picked at the harvest mature stage and sourced from the PFR Clyde Research Orchard in Central Otago on 8 Jan. 2016 for fruit based assays 1 and 2. A second harvest was carried out on 13 Jan. 2016 for fruit based assays 3 and 4.
(§3) Each cherry was then subjected to a double wash process. Wash one consisted of 10 minutes in tap water on a rotary shaker (110 rpm) followed by a five minute wash in SDW (Wash 2). […]
A Monilinia fructicola culture (isolate code MFGQ3), which had been originally isolated from an infected peach tree located in the Hamilton region during 1998, was used for the spray inoculation assays included in this section (Ruakura based assay). […] This stock suspension was then filtered using a 70 μm cell strainer (to remove mycelial fragments), the concentration determined using a haemocytometer and then adjusted, by dilution with SDW+Tw 80 (0.05%) to a final concentration of 1×10^4 conidia/mL. […]

Botrytis spp. = test: Cherry inoculation assays 2 and 4: Botrytis spp. fruit rot of ‘Sweet Valentine’ cherries, dip treatment; details: Assay 2, cherries, cumulative after 13 days; nil 35%; not significantly reduced (P>0.05)
Procedure: as §1, §2, §3
A Botrytis spp. culture (isolate code 09-2), which had been originally isolated from an infected kiwifruit located in the Bay of Plenty region during the 2000s, was used for the spray inoculation assays included in this section carried out on cherries. […] This stock suspension was then filtered using a 70 μm cell strainer (70 μm mesh) to remove mycelial fragments, the concentration determined using a haemocytometer and then adjusted, by dilution with SDW+Tw 80 (0.01% v/v) to a final concentration of 1×10^5 conidia/mL. […]

[1] = tested on: postharvest kiwifruit fruit pathogens; test: Assays 8 and 9 overall: wound protection of ‘Hongyang’ kiwifruit (discussion); details: wounded ‘Hongyang’ kiwifruit, treatment 24 hours before pathogen
Procedure: The kiwifruit ‘Hongyang’-based screening assays (assays 8 and 9) were conducted in laboratories at the Plant and Food Research Ruakura Research Centre, Hamilton, New Zealand (PFR). PFR assays focused on wound application of YBCA5 treatment, a commercial biological control treatment and a fungicide were used as comparative controls.
Just prior to wound treatment, each fruit was wounded on the side with a sterile stainless steel spike (4 mm deep×3 mm wide) and 10 μl of each treatment suspension was pipetted into the wound and allowed to dry.
For assays 8 and 9, two sterile paper towels were placed beneath Plix cut-outs, moistened with 40 mL SDW and each fruit placed in disposable lunch boxes (Plix Extra Deep 45/45, containing five Plix fruit cut-outs to prevent fruit from moving), sealed, then placed into large (40 L) plastic bins which were closed to ensure high relative humidity for the first 24 h and incubated on the lab bench at 24° C. […] After 6 days, (Alternaria spp. Botrytis spp., Penicillium spp., Phomopsis spp., Colletotrichum spp.) and 7 days (Cryptosporiopsis spp.), the severity of fungal rot was assessed for each treatment by measuring the lesion length (mm) along the axis of the fruit. Data were expressed as the average lesion length, minus the initial width of the wound (3 mm). […]

SMILES: CC(C)NC(=O)N1CC(=O)N(c2cc(Cl)cc(Cl)c2)C1=O [iprodione]
- incidence of Monilinia fruit rot (Monilinia fructicola): 22%
- incidence of Botrytis spp. fruit rot (Botrytis spp.): 22%
- overall performance as wound protectant [1]: performed poorly
